Series [1] concerns Hepatitis B virus. Description: Antiviral activity against Hepatitis B virus infected HepG2(2.2.15) cells assessed as inhibition of viral cytoplasmic DNA synthesis by real-time PCR. The class given is functional, organism-based. (In general: In qPCR the cycle at which signal appears reflects the starting amount.)
The nature of series [2]: Cytotoxicity against human HepG2(2.2.15) cells. Type of series: cell-based.
The nature of series [3]: Selectivity index, ratio of CC50 for human HepG2(2.2.15) cells to IC50 for Hepatitis B virus. The class given is functional.
Series [4] relates to Hepatitis B virus. Description: Ratio of compound IC50 to adefovir dipivoxil IC50 for Hepatitis B virus. Type of series: functional.
A short description of series [5]: Metabolic stability in human liver microsomes assessed as half life. The class given is ADME, Microsome. In general terms: Liver microsomes are a subcellular fraction often used to study metabolism.
A further series is filed under the species Homo sapiens. Description: Metabolic stability in human plasma assessed as half life.

These results are taken from ChEMBL document CHEMBL1156738, “Design, synthesis and evaluation of novel oxazaphosphorine prodrugs of 9-(2-phosphonomethoxyethyl)adenine (PMEA, adefovir) as potent HBV inhibitors” (Bioorg Med Chem Lett, 2009).

One may read the IC50 as the point on the concentration scale where inhibition reaches its midpoint. In general, CC50 refers to the concentration at which the toxic effect on the cells reaches its halfway point. Higher therefore signals better tolerance by the cells. As usually defined, the half-life is how long it takes for the measured level to halve.

With `CCC(C)[C@@H](C(=O)OC)N1CCCOP1(=O)COCCn1cnc2c(N)ncnc21.O=C(O)/C=C/C(=O)O` (some centres not stated), the IC50 with Hepatitis B virus [1] came out at 2.21 µM. The same compound yielded a CC50 in series [2] of 648 µM. In addition, the “Ratio CC50/IC50” value in series [3] stood at 293.

For the compound `CCOC(=O)[C@H](C(C)C)N1CCCO[P@@]1(=O)COCCn1cnc2c(N)ncnc21.O=C(O)/C=C/C(=O)O`, the IC50 in the series on Hepatitis B virus [1] stood at 50 µM. The compound further returned a CC50 in series [2] of 468 µM. Moreover, the “Ratio CC50/IC50” value in series [3] is 9.

For `CC(C)OC(=O)[C@H](C(C)C)N1CCCO[P@]1(=O)COCCn1cnc2c(N)ncnc21.O=C(O)/C=C/C(=O)O`, the IC50 in the series with Hepatitis B virus [1] was determined as 5.76 µM. Moreover, in series [2], the CC50 came out at 592 µM. The “Ratio CC50/IC50” value in series [3] stood at 103.

On to `COC(=O)[C@H](CC(C)C)N1CCCOP1(=O)COCCn1cnc2c(N)ncnc21.O=C(O)/C=C/C(=O)O` (some centres not stated), for which the IC50 in the series with Hepatitis B virus [1] is 0.32 µM. The CC50 in series [2] turned out to be 222 µM. In series [3], the “Ratio CC50/IC50” value is reported as 694.

On to `COC(=O)[C@H](C)N1CCCO[P@@]1(=O)COCCn1cnc2c(N)ncnc21.O=C(O)/C=C/C(=O)O`, for which the IC50 in the series on Hepatitis B virus [1] stood at 0.91 µM. In series [2], the CC50 amounted to 590 µM. Also, in series [3], the “Ratio CC50/IC50” value turned out to be 649.

Turning to `CC(C)(C)C(=O)OCOP(=O)(COCCn1cnc2c(N)ncnc21)OCOC(=O)C(C)(C)C` [ADEFOVIR DIPIVOXIL], the IC50 in the series on Hepatitis B virus [1] was found to be 0.33 µM. The CC50 in series [2] is 555 µM.

Take `CCOC(=O)[C@@H](C(C)C)N1CCCO[P@@]1(=O)COCCn1cnc2c(N)ncnc21.O=C(O)/C=C/C(=O)O`: in the series on Hepatitis B virus [1], the IC50 stood at 50 µM. The midpoint of cytotoxicity in series [2], the CC50, lay at 439 µM. The “Ratio CC50/IC50” value in series [3] amounted to 9.

For `COC(=O)[C@H](Cc1ccccc1)N1CCCOP1(=O)COCCn1cnc2c(N)ncnc21.O=C(O)/C=C/C(=O)O` (some centres not stated), in the series with Hepatitis B virus [1], the IC50 was 2.62 µM. Moreover, in series [2], the midpoint of cytotoxicity, the CC50, lay at 726 µM. Further, the “Ratio CC50/IC50” value in series [3] was found to be 277.

Take `CCOC(=O)[C@@H](C(C)C)N1CCCO[P@]1(=O)COCCn1cnc2c(N)ncnc21.O=C(O)/C=C/C(=O)O`: the IC50 in the series on Hepatitis B virus [1] came to 50 µM. Also, in series [2], the half-maximal cytotoxic concentration (CC50) turned out to be 400 µM. In series [3], the “Ratio CC50/IC50” value is reported as 8.

For the compound `COC(=O)[C@H](C)N1CCCO[P@]1(=O)COCCn1cnc2c(N)ncnc21.O=C(O)/C=C/C(=O)O`, the IC50 with Hepatitis B virus [1] was determined as 0.51 µM. The midpoint of cytotoxicity in series [2], the CC50, lay at 650 µM. Also, in series [3], the “Ratio CC50/IC50” value is 1270.

In the case of `COC(=O)[C@H](C(C)C)N1CCCO[P@]1(=O)COCCn1cnc2c(N)ncnc21.O=C(O)/C=C/C(=O)O`, the IC50 with Hepatitis B virus [1] came out at 0.12 µM. In series [2], the midpoint of cytotoxicity, the CC50, lay at 577 µM. For the same compound, in series [3], the “Ratio CC50/IC50” value was 4800. Also, the Ratio in the series on Hepatitis B virus [4] came to 3. Further, the half-life was 3.6 h in series [5] and over 6 h in the series filed under Homo sapiens.

Regarding `COC(=O)CN1CCCOP1(=O)COCCn1cnc2c(N)ncnc21.O=C(O)/C=C/C(=O)O` (racemic), in the series on Hepatitis B virus [1], the IC50 is 0.88 µM. In addition, the CC50 in series [2] came to 602 µM. In series [3], the “Ratio CC50/IC50” value came out at 683.

On to `CCOC(=O)[C@H](C(C)C)N1CCCO[P@]1(=O)COCCn1cnc2c(N)ncnc21.O=C(O)/C=C/C(=O)O`, for which, in the series on Hepatitis B virus [1], the IC50 is 3 µM. Further, the CC50 in series [2] amounted to 560 µM. Also, in series [3], the “Ratio CC50/IC50” value amounted to 187.

In the case of `COC(=O)[C@H](C(C)C)N1CCCO[P@@]1(=O)COCCn1cnc2c(N)ncnc21.O=C(O)/C=C/C(=O)O`, in series [5], the half-life is over 6 h.
